Measured values taken from article PMC5466964, “Alkyl Protocatechuate-Loaded Nanostructured Lipid Systems as a Treatment Strategy for Paracoccidioides brasiliensis and Paracoccidioides lutzii In Vitro” (Frontiers in Microbiology, 2017).
Converted amounts (≈) assume the structure as drawn. “Also recorded” adds a separate entry of the source.

Key:
[1] = system: Paracoccidioides brasiliensis S1 isolate 18 (Pb18); assay: MIC by microdilution (CLSI M27-A3 modified, alamar blue), Pb18; assay type: cell-based; conditions: read-out: Pb18 MIC
Experimental: (§1) Paracoccidioides brasiliensis S1 isolate 18 (Pb18-chronic PCM/São Paulo, Brazil), P. brasiliensis S2 (02-chronic PCM/Venezuela), and P. lutzii Pb01-strain ATCC MYA-826 (acute PCM/Goiânia, Brazil) were obtained from the mycology collection of the Mycology Laboratory, School of Pharmaceutical Sciences and were maintained in Fava-Netto agar medium at 37°C.
(§2) The MIC assay was performed according to the microdilution method described by Clinical and Laboratory Standards Institute ([CLSI, 2008]) document M27-A3 with modifications ([de Paula e Silva et al., 2013]). Alkyl derivatives of protocatechuic acid (hexyl, heptyl, octyl, nonyl, decyl, and dodecyl protocatechuates) were diluted according to CLSI M27-S3. The yeast suspension was adjusted to a final concentration of 1.5 × 10^3 CFU/mL in RPMI-1640 medium (Sigma–Aldrich, St. Louis, MO, United States) in 96-well plates and serial dilutions (from 250 to 0.24 μg/mL) of the compounds were then added; AMB and ITC were used as controls. The plates were incubated on a shaker at 37°C/150 rpm for a specific duration individually determined for each microorganism. The MIC was determined using alamar blue (Sigma–Aldrich, St. Louis, MO, United States) at 530 and 570 nm; a change from the original blue color of the reagent to pink […]. Following 72 or 96 h of incubation. The Minimum Fungicide Concentration (MFC) was determined by transferring an aliquot from the wells to Brain Heart Infusion (BHI) medium supplemented with 2% glucose (Difco, BD Biosciences) plates, which were then incubated at 37°C for 5–7 days. The MFC was defined as the concentration that inhibited growth ([Soares et al., 2014]).

[2] = Cytotoxicity assay, 0.4% sulforhodamine B, MRC5; assay type: cell-based; conditions: human, MRC5 cells; for IC50 at 24 h: 24 h treatment, SRB; for viability at 24 h: at MIC, read-out: cell viability at the MIC values
Experimental: The cytotoxicity of the protocatechuates was assessed in the MRC5 cell line (MRC5) obtained from the American Type Culture Collection (ATCC; Manassas, VA, United States) and HepG2 cell line obtained from the Biotechnology Laboratory Biotech (UNICAMP, Brazil). The plates were first incubated with 1 × 10^5 cells per well at 36.5°C under 5% CO2 for 24 h to form a cell monolayer ([Husøy et al., 1993]). Compounds were tested at different concentrations ranging from 0.12 to 62.5 μg/mL using serial dilutions in a total volume of 100 μL per well. After the 24 h treatment the cytotoxicity was assessed by the 0.4% sulforhodamine B (SRB) ([Vichai and Kirtikara, 2006]). The assay is sensitive and measures the cellular protein content of adherent or suspension cultures in 96-well plates. Cells were fixed with trichloroacetic acid (TCA) and then stained for 30 min with SRB dissolved in acetic acid. In mildly acidic conditions, SRB binds on basic amino acid residues on TCA-fixed cells. The unbound dye is then removed after washing and the dye bound to the protein is solubilized in basic medium (Tris-base). The absorbance was measured at 570 nm. The result of the percentage of viable cells was performed using the following formula: according to [Rajpoot et al. (2012)] with minor modification.
Viable cells % = (test mean - hite mean/mean negative control - mean white) × 100

[3] = system: P. lutzii Pb01-strain ATCC MYA-826; assay: MIC by microdilution (CLSI M27-A3 modified, alamar blue), Pb01; assay type: cell-based; conditions: Paracoccidioides lutzii, read-out: Pb01 MIC
Experimental: as §1, §2

[4] = system: P. brasiliensis S2 (02) (Pb02); assay: MIC by microdilution (CLSI M27-A3 modified, alamar blue), Pb02; assay type: cell-based; conditions: Paracoccidioides brasiliensis, read-out: Pb02 MIC, P. brasiliensis Pb02
Experimental: as §1, §2

[5] = system: P. brasiliensis (Pb18) adhesion to laminin matrix; assay: Inhibition of P. brasiliensis 18 adhesion to artificial ECM: laminin; assay type: cell-based, Paracoccidioides brasiliensis; conditions: Pb18, 3 h adhesion, 24 h treatment
Experimental: (§3) Initially, 24-well plates were coated with ECM of fibronectin and laminin, respectively (Sigma–Aldrich, St. Louis, MO, United States) at a concentration of 50 μg/mL for 18 h at 4°C followed by incubation for 1 h at 37°C. The plates were then washed three times with PBS and fungal suspension was added at a concentration of 1.5 × 10^3 CFU/mL, which had been inoculated into the 24-well plate previously sensitized with ECM and incubated at 37°C for 1, 3, or 5 h. Subsequently, the supernatant was removed, the plate was washed with PBS, and then 300 μL of trypsin was added (Sigma). The supernatant was obtained and then centrifuged at 10,000 rpm for 5 min at (4°C). The new supernatant was discarded and 500 μL of FACS buffer was added for subsequent cell counting by flow cytometry (BD FACS Canto and BD FACS Diva software analysis). Following the adhesion period, treatment with the selected compound (dodecyl and NLS+dodecyl) was performed for 24 h at 37°C. RPMI-1640 with L-glutamine and 2% glucose was used to maintain adequate nutritional status. Subsequently, the supernatant was removed and the plate was washed with PBS. Then, 300 μL of trypsin was added and centrifuged. The supernatant was discarded and 500 μL of FACS buffer was added to each tube for subsequent cell counting by flow cytometry (BD FACS Canto and BD FACS Diva software analysis).

[6] = system: P. brasiliensis (Pb18) adhesion to fibronectin matrix; assay: Inhibition of P. brasiliensis 18 adhesion to artificial ECM: fibronectin; assay type: cell-based, Paracoccidioides brasiliensis; conditions: Pb18, 3 h adhesion, 24 h treatment
Experimental: as §3

[7] = system: P. brasiliensis (Pb 18) adhesion to cell line MRC5; assay: Inhibition of P. brasiliensis 18 adhesion to cells (MRC5), flow cytometry; assay type: cell-based, Paracoccidioides brasiliensis; conditions: Pb18 on MRC5, 3 h adhesion, 24 h treatment
Experimental: Cells (MRC5) were cultured at 36.5°C in 24-well plates and adjusted to 1 × 10^5 cells per well. A P. brasiliensis suspension (1.5 × 10^3 CFU/mL) was labeled with 10 μM of 5(6)-carboxyfluorescein diacetate N-succinimidyl ester (CFSE; Sigma–Aldrich) and then added to the cells. The plate was incubated for 3 h at 36.5°C under 5% CO2 to enable the adhesion process. Subsequent to treatment, dodecyl and NLS+dodecyl were applied and the plate was incubated for 24 h under the same conditions. The supernatant was removed and the plate was washed with PBS. Then, 300 μL of trypsin (Sigma–Aldrich,) was added and centrifuged. The supernatant was discarded and 500 μL of FACS buffer was added to each tube, for subsequent cell counting by flow cytometry (BD FACS Canto) and BD FACS Diva software analysis ([Mendes-Giannini et al., 1994], [2004]; [Hanna et al., 2000]).

[8] = system: Caenorhabditis elegans wild-type strain N2; assay: Toxicity assay in C. elegans model; assay type: in vivo; conditions: 24 h; for toxic effect on C. elegans survival: 0.03 to 125 μg/mL
Experimental: Caenorhabditis elegans wild-type strain N2 was routinely cultured at 22°C on nematode growth medium (NGM) plates seeded with E. coli strain OP50. For the toxicity assay, eggs were harvested to obtain synchronous cultures. After 3 days, worms in the L4 stage were washed with M9 buffer. Then, approximately 20 worms were transferred to each well of a 96-wells plate containing 100 μL of 60% M9 buffer, 40% BHI, 10 μg/mL cholesterol (in ethanol), 200 μg/mL ampicillin, and 90 μg/mL kanamycin. Next, 100 μL of dodecyl protocatechuate, NLS, or NLS+dodecyl were added to the medium with final compound concentrations in each well ranging from 0.03 to 125 μg/mL. The plate was incubated at 22°C for 24 h. Worm survival was evaluated based on mobility and form (worms with a stick shape were considered dead and worms with a sinusoidal shape were considered alive). Images were acquired using an IN Cell Analyzer 2000 (GE Healthcare), microscope (10×).

C[C@@H]1[C@H](O)[C@@H](C)/C=C/C=C/C=C/C=C/C=C/C=C/C=C/[C@H](O[C@@H]2O[C@H](C)[C@@H](O)[C@H](N)[C@@H]2O)C[C@@H]2O[C@](O)(C[C@@H](O)C[C@@H](O)[C@H](O)CC[C@@H](O)C[C@@H](O)CC(=O)O[C@H]1C)C[C@H](O)[C@H]2C(=O)O [AMB, Amphotericin B, reference compound]
MIC [1]: 0.13 µg/mL (≈ 0.141 µM) | IC50 at 24 h [2]: 0.22 µg/mL (≈ 0.238 µM) | MIC [3]: 0.06 µg/mL (≈ 0.0649 µM)

CCC(C)n1ncn(-c2ccc(N3CCN(c4ccc(OCC5COC(Cn6cncn6)(c6ccc(Cl)cc6Cl)O5)cc4)CC3)cc2)c1=O (stereo not drawn) [ITC, itraconazole, reference compound]
MIC [4]: 0.01 µg/mL (≈ 0.0142 µM) | MIC [1]: 0.02 µg/mL (≈ 0.0283 µM) | IC50 at 24 h [2]: 0.1 µg/mL (≈ 0.142 µM) | MIC [3]: 0.12 µg/mL (≈ 0.17 µM)

CCCCCCCCCCOC(=O)c1ccc(O)c(O)c1 [decyl, decyl protocatechuate]
MIC [4]: 0.48 µg/mL (≈ 1.63 µM) | MIC [1]: 0.97 µg/mL (≈ 3.29 µM) | IC50 at 24 h [2]: 16 µg/mL (≈ 54.3 µM) | viability at 24 h [2]: 98% | MIC [3]: 1.9 µg/mL (≈ 6.45 µM)

CCCCCCCCCCCCOC(=O)c1ccc(O)c(O)c1 [dodecyl, Dodecyl protocatechuate]
inhibition of adhesion to the laminin matrix [5]: 75% | MIC [4]: 0.24 µg/mL (≈ 0.744 µM) | inhibition of adhesion to the fibronectin matrix [6]: 64% | inhibition of adhesion to cells [7]: 65% | Survival percentage of C. elegans worms ([8]; 0.03 μg/mL): 100% | Survival percentage of C. elegans worms ([8]; 0.48 μg/mL): 100% | Survival percentage of C. elegans worms ([8]; 7.80 μg/mL): 100% | Survival percentage of C. elegans worms ([8]; 15.60 μg/mL): 100% | Survival percentage of C. elegans worms ([8]; 62.50 μg/mL): 100% | Survival percentage of C. elegans worms ([8]; 125.00 μg/mL): 100% | toxic effect on C. elegans survival [8]: neither dodecyl nor NLS+dodecyl exhibited any toxic effects; also recorded: did not affect worm survival at any concentration | toxic effect on C. elegans survival ([8]; listed as free dodecyl protocatechuate): neither compound exhibited a toxic effect on survival | MIC [1]: 0.48 µg/mL (≈ 1.49 µM) | IC50 at 24 h [2]: 17.9 µg/mL (≈ 55.5 µM) | viability at 24 h [2]: 98% | MIC [3]: 0.48 µg/mL (≈ 1.49 µM)

CCCCCCCOC(=O)c1ccc(O)c(O)c1 [heptyl, heptyl protocatechuate]
MIC [4]: 0.24 µg/mL (≈ 0.951 µM) | MIC [1]: 7.8 µg/mL (≈ 30.9 µM) | IC50 at 24 h [2]: 17.6 µg/mL (≈ 69.8 µM) | viability at 24 h [2]: 65% | MIC [3]: 3.9 µg/mL (≈ 15.5 µM)

CCCCCCOC(=O)c1ccc(O)c(O)c1 [hexyl, hexyl protocatechuate]
MIC [4]: 1.9 µg/mL (≈ 7.97 µM) | MIC [1]: 3.9 µg/mL (≈ 16.4 µM) | IC50 at 24 h [2]: 29.5 µg/mL (≈ 124 µM) | viability at 24 h [2]: 99% | MIC [3]: 7.8 µg/mL (≈ 32.7 µM)

CCCCCCCCCOC(=O)c1ccc(O)c(O)c1 [nonyl, nonyl protocatechuate]
MIC [4]: 0.48 µg/mL (≈ 1.71 µM) | MIC [1]: 1.9 µg/mL (≈ 6.78 µM) | IC50 at 24 h [2]: 17.7 µg/mL (≈ 63.1 µM) | viability at 24 h [2]: 96% | MIC [3]: 0.97 µg/mL (≈ 3.46 µM)

CCCCCCCCOC(=O)c1ccc(O)c(O)c1 [octyl, octyl protocatechuate]
MIC [4]: 1.9 µg/mL (≈ 7.13 µM) | MIC [1]: 0.97 µg/mL (≈ 3.64 µM) | IC50 at 24 h [2]: 33.7 µg/mL (≈ 127 µM) | viability at 24 h [2]: 98% | MIC [3]: 0.97 µg/mL (≈ 3.64 µM)
